The text below walks through data of patent US8648037B2, “Macrocyclic proline derived HCV serine protease inhibitors” (priority 2010, dated 2014).

Broadly, the EC50 is the midpoint of the concentration-response curve. Low values mean an effect from little substance, high ones a need for much substance.

Test [1] relates to HCV R155K variants. The following applies: Bartels 2008, Lu 2004, Zhou 2007; cited from earlier work.
The subject of test [2] is HCV. The following applies: after R155K (danoprevir) or R155K/D168V (vaniprevir) variants detected; cited from earlier work.
Test [3] concerns HCV genotype 1a (1a-H77) stable subgenomic replicon. Briefly: genotype 1a Huh-7 stable replicon assay (luciferase reporter). The class given is cell-based, hepatitis C virus (HCV). Conditions: Hepatitis C virus, 5% FBS.
Test [4] has as its system HCV genotype 3a wild-type stable replicon (chimeric, NS3 gene from genotype 3a isolates). Briefly: genotype 3a wild-type stable replicon assay. It is filed as cell-based, hepatitis C virus (HCV). Conditions: Hepatitis C virus. (In general: A replicon is a self-replicating genome or part of one, used to study replication in cells.)
The subject of test [5] is HCV genotype 1a D168V variant transient replicon. Briefly: genotype 1a D168V transient replicon assay. Conditions: Hepatitis C virus. It is filed as cell-based, hepatitis C virus (HCV).
Test [6] concerns HCV genotype 1a R155K variant transient replicon. Briefly: genotype 1a R155K transient replicon assay. It is filed as cell-based, hepatitis C virus (HCV). The following applies: Hepatitis C virus.
Test [7] concerns HCV genotype 1a D168E variant transient replicon. Briefly: genotype 1a D168E transient replicon assay. It is filed as cell-based, hepatitis C virus (HCV). The following applies: Hepatitis C virus.
Test [8] has as its system HCV genotype 1b D168V variant transient replicon. Briefly: genotype 1b D168V transient replicon assay. The class given is cell-based, hepatitis C virus (HCV). The following applies: Hepatitis C virus.
Test [9] deals with HCV genotype 3a Q168R variant transient replicon. Briefly: genotype 3a Q168R transient replicon assay. The class given is cell-based, hepatitis C virus (HCV). Conditions: Hepatitis C virus.
Test [10] deals with HCV genotype 1b Con1 stable subgenomic replicon. Briefly: genotype 1b Con1 stable replicon assay (luciferase reporter). It is filed as cell-based, hepatitis C virus (HCV). Conditions: Hepatitis C virus.
Test [11] relates to HCV genotype 3a wild-type transient replicon. Briefly: genotype 3a wild-type transient replicon assay. It is filed as cell-based, hepatitis C virus (HCV). The following applies: Hepatitis C virus.
In test [12] the test system is HCV genotype 1b R155K variant transient replicon. Briefly: genotype 1b R155K transient replicon assay. The following applies: Hepatitis C virus. It is filed as cell-based, hepatitis C virus (HCV).
The subject of test [13] is HCV genotype 3a S138T variant transient replicon. Briefly: genotype 3a S138T transient replicon assay. The class given is cell-based, hepatitis C virus (HCV). Conditions: Hepatitis C virus.
Test [14] deals with HCV genotype 1b wild-type transient replicon. Briefly: genotype 1b wild-type transient replicon assay. Conditions: Hepatitis C virus. The class given is cell-based, hepatitis C virus (HCV).
Test [15] concerns HCV genotype 3a A166T variant transient replicon. Briefly: genotype 3a A166T transient replicon assay. It is filed as cell-based, hepatitis C virus (HCV). The following applies: Hepatitis C virus.
Test [16] has as its system HCV genotype 1a wild-type transient replicon. Briefly: genotype 1a wild-type transient replicon assay. It is filed as cell-based, hepatitis C virus (HCV). The following applies: Hepatitis C virus.

As to `CC(C)(C)OC(=O)N[C@H]1CCCCC/C=C\[C@@H]2C[C@@]2(C(=O)NS(=O)(=O)C2CC2)NC(=O)[C@@H]2C[C@@H](OC(=O)N3Cc4cccc(F)c4C3)CN2C1=O` [danoprevir], the “resistance conferred by R155K variants” value in test [1] is on record as “high-level resistance”. For the same compound, in test [2], the “viral load in patients receiving treatment” value is listed as “Viral load rebound”.

For the compound `CC(C)(C)[C@@H]1NC(=O)O[C@@H]2CCC[C@H]2OC/C=C/C(F)(F)c2nc3ccccc3nc2O[C@@H]2C[C@@H](C(=O)N[C@]3(C(=O)NS(=O)(=O)C4CC4)C[C@H]3C(F)F)N(C2)C1=O` [Example 2], the EC50 in test [3] was 1 to 10 nM; in test [4] it was under 10 nM; in test [5] it was under 1 nM; in test [6] it was under 0.1 nM; in [7], under 1 nM; in test [8] it was 1 to 100 nM. The concentration giving a half-maximal response (EC50) in test [9] is 100 to 1000 nM; in test [10], 1 to 10 nM; in test [11] it was under 10 nM; in [12], under 1 nM; in [13], 100 to 1000 nM; in test [14], under 1 nM. In addition, the figures for the 50% effective concentration (EC50) in test [15] and in test [16] were under 100 nM and 0.1 to 1 nM, respectively.

As to `CC[C@@H]1C[C@]1(NC(=O)[C@@H]1C[C@@H]2CN1C(=O)[C@H](C(C)(C)C)NC(=O)O[C@@H]1CCC[C@H]1OC/C=C/C(F)(F)c1nc3ccccc3nc1O2)C(=O)NS(=O)(=O)C1(C)CC1` [Example 8], the EC50 in test [3] was under 1 nM; in test [5], 1 to 10 nM; in [6], under 0.1 nM; in test [7], under 1 nM; in test [8] it was 1 to 100 nM; in test [9], 100 to 1000 nM. Further, the EC50 in test [10] is 1 to 10 nM; in test [11], 10 to 100 nM; in [12], under 1 nM; in test [13], 100 to 1000 nM; in test [14] it was under 1 nM; in test [15], 100 to 500 nM. Moreover, the concentration for a half-maximal effect (EC50) in test [16] fell in the range of 0.1 to 1 nM.

`CC[C@@H]1C[C@]1(NC(=O)[C@@H]1C[C@@H]2CN1C(=O)[C@H](C(C)(C)C)NC(=O)OCC(C)(C)CCCCc1cccc3c1CN(C3)C(=O)O2)C(=O)NS(=O)(=O)C1CC1` [vaniprevir]: the “viral load in patients receiving treatment” value in test [2] is “viral load rebound”.

For the compound `COc1ccc2c(O[C@@H]3C[C@H]4C(=O)N[C@]5(C(=O)O)C[C@H]5/C=C\CCCCC[C@H](NC(=O)OC5CCCC5)C(=O)N4C3)cc(-c3csc(NC(C)C)n3)nc2c1` [BILN 2061], in [1], the “resistance conferred by R155K variants” value is recorded as “high-level resistance”.

Regarding `C=C[C@@H]1C[C@]1(NC(=O)[C@@H]1C[C@@H]2CN1C(=O)[C@H](C(C)(C)C)NC(=O)O[C@@H]1CCC[C@H]1OC/C=C/C(F)(F)c1nc3ccccc3nc1O2)C(=O)NS(=O)(=O)C1(C)CC1` [Example 5], the EC50 in test [3] was under 1 nM; in test [4], under 10 nM; in [5], under 1 nM; in test [6], under 0.1 nM; in test [7], under 1 nM; in test [8], under 1 nM. Moreover, the EC50 was under 100 nM in test [9]; 1 to 10 nM in test [10]; under 10 nM in test [11]; under 1 nM in [12]; under 1 nM in [14]; under 100 nM in test [15]. For the same compound, the EC50 in test [16] is under 0.1 nM.

Take `CC[C@@H]1C[C@]1(NC(=O)[C@@H]1C[C@@H]2CN1C(=O)[C@H](C(C)(C)C)NC(=O)O[C@@H]1CCC[C@H]1OC/C=C/C(F)(F)c1nc3ccccc3nc1O2)C(=O)NS(=O)(=O)C1CC1` [Example 4]: the EC50 in test [3] was under 1 nM; in test [5], 10 to 1000 nM; in test [6], 0.1 to 1 nM; in [7] it was under 1 nM; in [8], 1 to 100 nM; in test [9], 100 to 1000 nM. Besides, the EC50 in [10] was 1 to 10 nM; in test [11], 10 to 100 nM; in test [12], under 1 nM; in test [13] it was 100 to 1000 nM; in [14] it was under 1 nM; in test [15] it was 100 to 500 nM. In test [16], this compound had an EC50 of 0.1 to 1 nM.

As to `C=C[C@@H]1C[C@]1(NC(=O)[C@@H]1C[C@@H]2CN1C(=O)[C@H](C(C)(C)C)NC(=O)O[C@@H]1CCC[C@H]1OC/C=C/C(F)(F)c1nc3ccccc3nc1O2)C(=O)NS(=O)(=O)C1CC1` [Example 1], the EC50 in [3] was under 1 nM; in [4] it was under 10 nM; in test [5], 1 to 10 nM; in [6], 0.1 to 1 nM; in test [7] it was under 1 nM; in test [8], under 1 nM. In addition, the half-maximal effective concentration (EC50) in [9] was 100 to 1000 nM; in test [10] it was 1 to 10 nM; in [11] it was 10 to 100 nM; in test [12], under 1 nM; in test [13], 100 to 1000 nM; in test [14] it was under 1 nM. Further, the EC50 in test [15] lay in the range of 100 to 500 nM; in test [16], 0.1 to 1 nM.

Regarding `CC(C)(C)[C@@H]1NC(=O)O[C@@H]2CCC[C@H]2OC/C=C/C(F)(F)c2nc3ccccc3nc2O[C@@H]2C[C@@H](C(=O)N[C@]3(C(=O)NS(=O)(=O)C4(C)CC4)C[C@H]3C(F)F)N(C2)C1=O` [Example 6], the concentration for a half-maximal effect (EC50) in test [3] was under 1 nM; in test [4], under 10 nM; in [5], under 1 nM; in test [6], under 0.1 nM; in [7], under 1 nM; in [8] it was under 1 nM. The EC50 in test [9] is under 100 nM; in test [10], 1 to 10 nM; in test [11], under 10 nM; in test [12], under 1 nM; in [13] it was under 100 nM; in test [14], under 1 nM. For the same compound, the values for the EC50 in test [15] and in [16] were under 100 nM and under 0.1 nM, respectively.
